US12486256B2, “Crystal forms of crenolanib and methods of use thereof” (Arog Pharmaceuticals, Inc., priority 2020, dated 2025)

How the values were obtained:
Type in all cases: physicochemical
[1] = Dynamic Vapor Sorption (DVS), hygroscopicity of polymorphic forms; settings: for form change during DVS cycling / post-DVS (XRPD): XRPD of retained solid
Experimental: Dynamic Vapor Sorption (DVS) was used to determine the hygroscopicity of stable polymorphic forms. Approximately 10-20 milligrams of sample was placed in to a mesh vapor sorption balance pan and loaded into an intrinsic dynamic vapor sorption balance by Surface Measurement Systems. The sample was subjected to ramping profile from 40-90% relative humidity (RH) at 10% increments, maintain the sample at each step until as table weight had been achieved (dm/dt 0.0004%, minimum step length 30 minutes, maximum step length 500 minutes) at 25° C. After completion of the sorption cycle, the sample was dried using the same procedure to 0% RH and then a second sorption cycle back to 40% RH. Two cycles were performed. The weight change during the sorption/desorption cycles were plotted, allowing for the hygroscopic nature of the sample tot be determined. XRPD was then carried out on any solid retained to determine if there was change between polymorphic forms during the process.

[2] = Solubility in aqueous solutions; settings: aqueous solutions at neutral pH
[3] = TGA/DSC, thermal degradation; settings: 10° C./min
Experimental: Thermogravimetric Analysis/Differential Scanning calorimetry (TGA/DSC) was used to determine the phase transition and degradation points as well as the hydrated/solvated states of the various polymorphic forms identified. Approximately 5-10 milligrams of material was added into a pre-tared open aluminum pan and loaded into a TA Instruments SDT 650 Auto-Simultaneous DSC and held at room temperature. The sample was then heated at a rate of 10° C./min from 30° C. to 400° C. during which time the change in sample weight was recorded along with the heat flow response (DSC). Nitrogen was used as the sample purge gas, at a flow rate of 200 cm^3/min. Skilled artisans will appreciate that ambient laboratory conditions may cause slight variability in these readings.

[4] = Competitive slurry, thermodynamic stability of crystalline forms; settings: competitive slurry conditions, Form III seeds present; monobenzenesulfonate
[5] = DVS at 90% relative humidity, 25° C., monobenzenesulfonate
[6] = DVS, 25° C., monobenzenesulfonate

Row | mass uptake [1, 5] | form change during DVS cycling / post-DVS (XRPD) ([1]; monobenzenesulfonate) | hygroscopicity [1, 6] | onset of thermal degradation [3] [°C] | mass uptake ([1]; DVS, desolvated form, between 0% and 10% humidity) [%] | mass loss (desolvation) ([1]; DVS, during the first cycle) [%] | onset of thermal degradation ([3]; monobenzenesulfonate) [°C] | Structure (SMILES) | solubility relative to other forms [2] | thermodynamic stability / form conversion [4]
1 | approximately 1.5% | No form change | slightly hygroscopic | 165 |  |  |  | CC1(COc2ccc3c(c2)ncn3-c2ccc3cccc(N4CCC(N)CC4)c3n2)COC1.O=S(=O)(O)c1ccccc1 [Form II, 1-[2-[5-[(3-Methyl-3-oxetanyl)methoxy]-1H-benzimidazol-1-yl]-8-quinolinyl]-4-piperidinamine monobenzenesulfonate] | more soluble in aqueous solutions at neutral pH than the anhydrous Forms I and III | 
2 |  | No form change | non-hygroscopic |  |  |  |  | CC1(COc2ccc3c(c2)ncn3-c2ccc3cccc(N4CCC(N)CC4)c3n2)COC1.O=S(=O)(O)c1ccccc1 [Form I, 1-[2-[5-[(3-Methyl-3-oxetanyl)methoxy]-1H-benzimidazol-1-yl]-8-quinolinyl]-4-piperidinamine monobenzenesulfonate] |  | will convert to Form III
3 |  | converts to the hemi-hydrated Form II | hygroscopic |  | 1.5 | 9.4 | 241 | CC1(COc2ccc3c(c2)ncn3-c2ccc3cccc(N4CCC(N)CC4)c3n2)COC1.O=S(=O)(O)c1ccccc1 [Form IV, 1-[2-[5-[(3-Methyl-3-oxetanyl)methoxy]-1H-benzimidazol-1-yl]-8-quinolinyl]-4-piperidinamine monobenzenesulfonate] |  | 
4 | approximately 1.5% | No form change | slightly hygroscopic |  |  |  |  | CC1(COc2ccc3c(c2)ncn3-c2ccc3cccc(N4CCC(N)CC4)c3n2)COC1.O=S(=O)(O)c1ccccc1 [Form III, 1-[2-[5-[(3-Methyl-3-oxetanyl)methoxy]-1H-benzimidazol-1-yl]-8-quinolinyl]-4-piperidinamine monobenzenesulfonate] |  | most thermodynamically stable crystalline form
